# Reference: patent US20010056099A1, “Method of reducing morbidity and the risk of mortality” (priority 2000, published 2001)
# Experiments:
# OVX rats [1] = test: Ovariectomized rat model: bone histomorphometry of fifth lumbar vertebral body; format: in vivo; settings: 4 weeks; for OVX-induced increase in bone formation rate (BFR) / percent eroded surface (index of osteoclastic bone resorption) compared with sham controls: lumbar vertebra
# Text: (§1) In women, estrogen deficiency during the menopause results in increased bone turnover leading to bone loss. Ovariectomy in rats produces estrogen deficiency and increased bone turnover leading to trabecular bone loss similar to that observed in post-menopausal women (Kalu, D. N., Bone and Mineral 1991;15:175; Frost, H. M., Jee W. S. S., Bone and Mineral 1992;18:227; Wronski, T. J., Yen, C-F, Cells Materials 1991 ;(suppl. 1):69). The OVX rat is thus an appropriate model to evaluate compounds for the prevention and treatment of post-menopausal osteoporosis. The ability of PPTN to inhibit estrogen deficiency bone loss was assessed in 5-month-old OVX rats, since ovariectomy causes significant bone loss in the lumbar vertebrae, proximal tibia, and distal femoral metaphyses (Ke, H. Z., et al., Endocrin 1995;136:2435; Chen, H. K., et al., J Bone Miner Res 1995;10:1256).
# (§2) Five-month-old OVX female rats were treated with PPTN at oral doses of 0.733, 7.33, 73.3, and 733 μg/kg/day, or 17α-ethynyl estradiol (EE) at 30 μg/kg/day (10 rats per subgroup) daily for 4 weeks. The oral treatment began 1 day after surgery. Groups of vehicle-treated sham rats (n=10) and vehicle-treated OVX rats (n=10) served as controls. Calcein at 10 mg/kg was injected s.c. to all rats 12 and 2 days before necropsy as a fluorochrome bone marker to measure bone dynamic histomorphometric parameters. The effects of PPTN on the following end points were determined: (a) serum osteocalcin, a biochemical marker of bone turnover, (b) bone mineral density of lumbar vertebrae and distal femoral metaphyses, (c) bone histomorphometry of fifth lumbar vertebral body and proximal tibial metaphyses.
# In order to understand the cellular mechanism of bone-protective effects of PPTN at the tissue level, bone histomorphometric methods were used to determine the effects of PPTN on cancellous bone of the fifth lumbar vertebral body in OVX rats. Ovariectomy caused significant decreases in trabecular bone volume (trabecular bone area divided by marrow space area, expressed as percent) and trabecular number, and a significant increase in trabecular separation of the fifth lumbar vertebral body.
# OVX rats [2] = test: Ovariectomized rat model: femoral BMD by dual-energy X-ray absorptiometry; format: in vivo; settings: 4 weeks
# Text: as §1, §2
# Using dual-energy X-ray absorptiometry, the right femur of each rat was scanned ex vivo. Bone mineral density (BMD) of the distal femoral metaphyses (second 0.5 cm from the distal end of femur) and the proximal femur (the first 0.5 cm from the proximal end of femur, which contains the femoral head, neck, and greater trochanter) was determined.
# OVX rats [3] = test: Ovariectomized rat model: histomorphometry of proximal tibial metaphyses; format: in vivo; settings: 4 weeks
# Text: as §1, §2
# In order to determine the effect of PPTN on long bone metaphyses, histomorphometric analyses were performed on the proximal tibiae.
# OVX rats [4] = test: Ovariectomized rat model: lumbar vertebral BMD by dual-energy X-ray absorptiometry; format: in vivo; settings: 4 weeks
# Text: as §1, §2
# The first to the sixth lumbar vertebrae from each rat were removed during necropsy. These were then scanned ex vivo using dual-energy X-ray absorptiometry. The scan images were analyzed, and bone area, bone mineral content (BMC), and bone mineral density (BMD) of whole lumbar vertebrae (WLV), and LV1 through LV6 were determined. […] The changes in BMC were similar to those observed in BMD. […]
# OVX rats [5] = test: Ovariectomized rat model: serum osteocalcin by radioimmunoassay; format: in vivo; settings: daily for 4 weeks
# Text: as §1
# Five-month-old OVX female rats were treated with PPTN at oral doses of 0.733, 7.33, 73.3, and 733 μg/kg/day, or 17α-ethynyl estradiol (EE) at 30 μg/kg/day (10 rats per subgroup) daily for 4 weeks. […] The effects of PPTN on the following end points were determined: (a) serum osteocalcin, a biochemical marker of bone turnover, (b) bone mineral density of lumbar vertebrae and distal femoral metaphyses, (c) bone histomorphometry of fifth lumbar vertebral body and proximal tibial metaphyses. […]
# MDA-MB-231 cells = test: Inhibition of in vitro human breast tumor cell growth (ER-negative line); format: cell-based; settings: MDA-MB-231 (ER-negative), 6 days incubation, direct cell counts
# Method: The in vitro antiproliferative effects of (-)-cis-6-phenyl-5-[4-(2-pyrrolidin-1-yl-ethoxy)-phenyl]-5,6,7,8-tetrahydro-naphthalene-2-ol (PPTN) were tested using two types of human breast cancer cell lines: first, MCF-7 cells, which contain ER as well as progesterone receptors (PgR), and second, MDA-MB-231 cells, which lack ER and PgR, and enable the determination of an effect that is independent of the ER mechanism. The effect of PPTN on the growth of these different cell lines was determined by incubation of the cells with various compound concentrations for 6 days.
# The antiproliferative effects were then determined by direct cell counts. PPTN inhibited the growth of the ER-positive cell line MCF-7.
# [6] = PPTN at 73.3 or 733 μg/kg/day oral
# [7] = PPTN at doses ≧7.33 μg/kg/day oral
smiles,measurement,setting,value
"C#C[C@]1(O)CC[C@H]2[C@@H]3CCc4cc(O)ccc4[C@H]3CC[C@@]21C [EE, 17α-ethynyl estradiol, reference compound]","OVX-induced changes in trabecular bone volume, trabecular number and trabecular separation of fifth lumbar vertebral body",OVX rats [1]; EE 30 μg/kg/day oral,completely prevented
same,"bone turnover rate, lumbar vertebra",OVX rats [1]; EE 30 μg/kg/day oral,did not differ from sham controls
same,trabecular number of fifth lumbar vertebral body compared with sham controls,OVX rats [1]; EE 30 μg/kg/day oral,significantly increased
same,OVX-induced increase in bone formation rate (BFR),OVX rats [1]; EE 30 μg/kg/day oral,inhibited this increase
same,percent eroded surface (index of osteoclastic bone resorption) compared with sham controls,OVX rats [1]; EE 30 μg/kg/day oral,significantly decreased
same,OVX-induced decrease in BMD of distal femoral metaphyses,OVX rats [2]; EE 30 μg/kg/day oral,prevented the decrease
same,proximal femoral BMD,OVX rats [2]; EE 30 μg/kg/day oral,had no effect
same,bone turnover rate in proximal tibial trabecular bone,OVX rats [3]; EE 30 μg/kg/day oral,did not differ from sham controls
same,osteoclast number per millimeter of bone surface and percent osteoclast surface compared with both sham and OVX controls,"OVX rats [3]; EE 30 μg/kg/day oral, proximal tibia",significantly decreased
same,OVX-induced decrease in lumbar vertebral BMD,OVX rats [4]; EE 30 μg/kg/day oral,completely prevented
same,OVX-induced increase in serum osteocalcin concentration,OVX rats [5]; EE 30 μg/kg/day oral,completely prevented
"Oc1ccc2c(c1)CC[C@H](c1ccccc1)[C@@H]2c1ccc(OCCN2CCCC2)cc1 [PPTN, (-)-cis-6-phenyl-5-[4-(2-pyrrolidin-1-yl-ethoxy)-phenyl]-5,6,7,8-tetrahydro-naphthalene-2-ol]",ED50 in preserving lumbar vertebral cancellous bone mass and structure,"OVX rats [1]; OVX rats, oral",less than 0.733 μg/kg/day
same,trabecular number of fifth lumbar vertebral body compared with sham controls,OVX rats [1]; [6],significantly increased
same,"bone turnover rate, lumbar vertebra","OVX rats [1]; PPTN at all dose levels, oral",did not differ from sham controls
same,OVX-induced increase in bone formation rate (BFR),"OVX rats [1]; PPTN at all dose levels, oral",inhibited this increase
same,percent eroded surface (index of osteoclastic bone resorption) compared with sham controls,"OVX rats [1]; PPTN at all dose levels, oral",significantly decreased
same,"OVX-induced changes in trabecular bone volume, trabecular number and trabecular separation of fifth lumbar vertebral body",OVX rats [1]; all doses of PPTN (0.733-733 μg/kg/day oral),completely prevented
same,BMD of distal femoral metaphyses and proximal femur,OVX rats [2]; PPTN at 0.733 or 7.33 μg/kg/day oral,did not differ from OVX controls
same,OVX-induced decreases in BMD of distal femoral metaphyses and proximal femur,OVX rats [2]; [6],completely prevented the decreases
same,proximal tibial trabecular bone volume,OVX rats [3]; PPTN at 0.733 μg/kg/day oral,no significant effect
same,percent osteoclast surface compared with OVX controls,"OVX rats [3]; PPTN at 0.733 μg/kg/day, proximal tibia",decreased significantly
same,osteoclast number per millimeter of bone surface and percent osteoclast surface compared with both sham and OVX controls,"OVX rats [3]; PPTN at 7.33, 73.3, or 733 μg/kg/day oral, proximal tibia",significantly decreased
same,bone turnover rate in proximal tibial trabecular bone,OVX rats [3]; PPTN at doses of 7.33 to 733 μg/kg/day oral,did not differ from sham controls
same,proximal tibial trabecular bone volume compared with OVX controls,OVX rats [3]; [7],significantly greater
same,lumbar vertebral BMD compared with both sham and OVX controls,OVX rats [4]; PPTN 73.3 μg/kg/day oral,increased significantly
same,OVX-induced decrease in lumbar vertebral BMD,"OVX rats [4]; PPTN at all dose levels (0.733, 7.33, 73.3, 733 μg/kg/day oral)",completely prevented
same,inhibition of cell proliferation,MDA-MB-231 cells,did not inhibit cell proliferation
same,OVX-induced increase in serum osteocalcin concentration,OVX rats [5]; [7],completely prevented
